Like-named read-outs stand apart in the source and are kept apart here. Values belong to the molecule of their own block, whether it stands above or below them.
Key:
[1] = system: GFP-A549 human lung cancer cells
[2] = for Total drug levels (PS V plus its metabolites): plasma
[3] = design: unit not given beside the values; settings: mouse, in vivo, inhaled or intranasal
lung cancer = settings: curcumin as a single agent, pre-clinical models of lung cancer; cited from earlier work

Structure (SMILES): CCOP(=O)(OCC)OCCCCOC(=O)CC1=C(C)/C(=C/c2ccc([S+](C)[O-])cc2)c2ccc(F)cc21 (stereo not drawn) [PS V, phospho-sulindac]
tumor size by luminosity ([1]; at sacrifice, Mean±SEM, control = 19.85±4.33, p < 0.001): 5.05±2.97
tumor size by lung weight ([1]; at sacrifice, Mean±SEM, control = 385.7±85.2 mg, p < 0.001): 204.4 ± 39.4 mg
death rate ([1]; end of the study, aerosol of 50 mg/mL PS V for 8 min, control group 40 %, p < 0.03): less than 10%
level of intact PS V in the lungs ([2]; inhalational, 6.5 mg/kg body weight): > 20 nmol/g
level of intact PS V in the lungs ([2]; oral administration, 150 mg/kg body weight): < 2 nmol/g
Total drug levels (PS V plus its metabolites) ([2]; after inhalation treatment, 6.5 mg/kg): 17 µM
Total drug levels (PS V plus its metabolites) ([2]; after oral administration, 150 mg/kg): 348 µM

AUC [3]: 30.1
Structure (SMILES): CC1=C(CC(=O)O)c2cc(F)ccc2/C1=C\c1ccc([S+](C)[O-])cc1 (stereo not drawn) [Sulindac, sulindac]

Structure (SMILES): COc1cc(/C=C/C(=O)CC(=O)/C=C/c2ccc(O)c(OC)c2)ccc1O [curcumin]
efficacy (lung cancer): < 30%

From EP2711006A1, “Product Comprising a Nicotine-Containing Material and an Anti-Cancer Agent” (Rigas, Basil, priority 2012, dated 2014)
